Source: ChEMBL document CHEMBL4219256, “Design, Synthesis, and Biological Evaluation of 4-Quinoline Carboxylic Acids as Inhibitors of Dihydroorotate Dehydrogenase” (J Med Chem, 2018)

Legend:
MIA PaCa-2 = test: Antiproliferative activity against human MIAPaCa2 cells after 72 hrs by MTT assay; type: functional, cell-based
HCT-116 [1] = test: Antiproliferative activity against human HCT116 cells over-expressing DHODH after 72 hrs by MTT assay; type: functional, cell-based
HL-60 = test: Antiproliferative activity against human HL60 cells after 72 hrs by MTT assay
[2] = molecular target: Dihydroorotate dehydrogenase (quinone), mitochondrial (Homo sapiens, UniProt Q02127)
Description: Inhibition of DHODH (unknown origin) expressed in Escherichia coli Rosetta2(DE3) assessed as reduction of DCIP using dihydroorotate as substrate preincubated for 30 mins followed by substrate addition in presence of CoQ10 measured after 1 hr

HCT-116 [3] = test: Growth inhibition of human HCT116 cells over-expressing DHODH at 2 times antiproliferative IC50 after 72 hrs in presence of 5 uM uridine by MTT assay; type: functional
[4] = Thermodynamic aqueous solubility of the compound in pH 7.4 phosphate buffer at 2.9 mg/ml after overnight incubation by CLND method; type: physicochemical
[5] = Thermodynamic aqueous solubility of the compound in pH 7.4 phosphate buffer at 4.9 mg/ml after overnight incubation by CLND method; type: physicochemical

Chain of Dihydroorotate dehydrogenase (quinone), mitochondrial (Q02127 whole entry): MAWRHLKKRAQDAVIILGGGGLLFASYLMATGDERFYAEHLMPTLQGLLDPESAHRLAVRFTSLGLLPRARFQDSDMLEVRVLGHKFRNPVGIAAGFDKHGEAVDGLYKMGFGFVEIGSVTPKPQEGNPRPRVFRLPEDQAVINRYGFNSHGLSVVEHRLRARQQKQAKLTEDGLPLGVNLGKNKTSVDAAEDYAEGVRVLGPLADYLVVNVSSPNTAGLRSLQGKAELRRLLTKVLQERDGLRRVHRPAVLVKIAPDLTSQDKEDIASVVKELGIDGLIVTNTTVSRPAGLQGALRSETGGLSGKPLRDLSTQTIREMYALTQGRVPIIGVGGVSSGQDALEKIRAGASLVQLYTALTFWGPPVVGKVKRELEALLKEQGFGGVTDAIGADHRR

O=C(O)c1cc(-c2ccc(-c3ccccc3)cc2)nc2ccccc12
IC50 (MIA PaCa-2): 2.16 µM | IC50 (HCT-116 [1]): 0.344 µM | IC50 (HL-60): 3.51 µM

Cc1c(-c2ccc(-c3ccccc3)cc2)nc2ccccc2c1C(=O)O
IC50 (MIA PaCa-2): 5.29 µM | IC50 (HCT-116 [1]): 8.51 µM

O=C(O)c1cc(-c2ccc(-c3ccc(F)nc3)cc2)nc2ccccc12
IC50 (HCT-116 [1]): 16.8 µM

CC(C)Cc1ccc(-c2cc(C(=O)O)c3ccccc3n2)cc1
IC50 (MIA PaCa-2): 14.5 µM

Cc1c(-c2ccc(-c3cccnc3F)cc2)nc2ccc(Cl)cc2c1C(=O)O
IC50 (MIA PaCa-2): 14.7 µM | IC50 (HCT-116 [1]): 5.43 µM

Cc1ccc2nc(-c3ccc(-c4cccnc4Cl)cc3)c(C)c(C(=O)O)c2c1
IC50 (MIA PaCa-2): 8.29 µM | IC50 (HCT-116 [1]): 11.1 µM

Cc1c(-c2ccc(-c3cccnc3Cl)cc2)nc2ccc(Cl)cc2c1C(=O)O
IC50 (MIA PaCa-2): 4.73 µM | IC50 (HCT-116 [1]): 4.36 µM

O=C(O)c1cc(-c2ccc(-c3cccnc3Cl)cc2)nc2ccccc12
IC50 (MIA PaCa-2): 7.13 µM | IC50 (HL-60): 7.12 µM

COC(=O)c1cc(-c2ccc(-c3ccccc3)cc2)nc2ccccc12
IC50 (MIA PaCa-2): 11.5 µM | IC50 (HCT-116 [1]): 6.9 µM | IC50 [2]: > 200 µM

Cc1c(-c2ccc(-c3cccnc3F)cc2)nc2ccccc2c1C(=O)O
IC50 (MIA PaCa-2): 13.4 µM | IC50 (HCT-116 [1]): 21.3 µM

O=C(O)c1cc(-c2ccc(-c3cccnc3F)cc2)nc2ccccc12
IC50 (MIA PaCa-2): 32.1 µM | IC50 (HCT-116 [1]): 11.2 µM | IC50 [2]: 1.42 µM

O=C(O)c1cc(-c2ccc(-c3ccccn3)cc2)nc2ccccc12
IC50 (MIA PaCa-2): 49.3 µM | IC50 (HCT-116 [1]): 39.6 µM

Cc1ccc(-c2ccc(-c3nc4ccc(F)cc4c(C(=O)O)c3C)cc2)c(F)n1
IC50 (MIA PaCa-2): 33.8 µM | IC50 (HCT-116 [1]): 33.7 µM

Cc1c(-c2ccc(-c3cccnc3Cl)cc2)nc2ccccc2c1C(=O)O
IC50 (MIA PaCa-2): 8.64 µM | IC50 (HCT-116 [1]): 6.44 µM | IC50 (HL-60): 15.3 µM

Cc1ccc(-c2ccc(-c3cc(C(=O)O)c4ccccc4n3)cc2)c(Cl)n1
IC50 (MIA PaCa-2): 14.2 µM | IC50 (HCT-116 [1]): 5.13 µM

O=C(O)c1cc(-c2ccc(C3CCCCC3)cc2)nc2ccccc12
IC50 (MIA PaCa-2): 5.88 µM | IC50 (HCT-116 [1]): 4.22 µM | growth inhibition (GI) (HCT-116 [3]): <50% | Therm_solubility [4]: 43.9 µM | Therm_solubility [5]: 48 µM

O=C(O)c1cc(-c2ccc(-c3cccnc3)cc2)nc2ccccc12
IC50 (MIA PaCa-2): 32.8 µM | IC50 (HCT-116 [1]): 20.9 µM

O=C(O)c1cc(-c2ccc(-c3ccncc3)cc2)nc2ccccc12
IC50 (MIA PaCa-2): 68.1 µM | IC50 (HCT-116 [1]): 33.6 µM

O=C(O)c1cc(-c2ccc(N3CCCCC3)cc2)nc2ccccc12
IC50 (MIA PaCa-2): 16.7 µM | IC50 (HCT-116 [1]): 7.23 µM

Cc1ccc(-c2ccc(-c3nc4ccccc4c(C(=O)O)c3C)cc2)c(F)n1
IC50 (MIA PaCa-2): 31.6 µM | IC50 (HCT-116 [1]): 23.9 µM

O=C(O)c1cc(-c2ccc(N3CCOCC3)cc2)nc2ccccc12
IC50 (MIA PaCa-2): > 100 µM | IC50 (HCT-116 [1]): > 100 µM | IC50 [2]: > 200 µM

Cc1ncccc1-c1ccc(-c2cc(C(=O)O)c3ccccc3n2)cc1
IC50 (MIA PaCa-2): 18.2 µM | IC50 (HL-60): 11.6 µM

Cc1ccc(-c2ccc(-c3nc4ccccc4c(C(=O)O)c3C)cc2)c(Cl)n1
IC50 (MIA PaCa-2): 7.7 µM | IC50 (HCT-116 [1]): 15.5 µM

COC(=O)c1cc(-c2ccc(-c3cnccc3C(F)(F)F)cc2)nc2ccccc12
IC50 [2]: > 50 µM
